For this assay, the target named is Tyrosine-protein kinase BTK (Homo sapiens, UniProt Q06187). The assay can be described thus: Biochemical Assay: A generalized procedure for a standard biochemical Btk Kinase Assay that can be used to test Formula I compounds. Alternatively, the Lanthascreen assay can be used to evaluate Btk activity through quantification of its phosphorylated peptide product. The FRET (Fluorescence Resonance Energy Transfer) that occurs between the fluorescein on the peptide product and the terbium on …. Background: In TR-FRET formats the signal depends on donor and acceptor labels being close together.
Sequence of Tyrosine-protein kinase BTK (Q06187 whole entry): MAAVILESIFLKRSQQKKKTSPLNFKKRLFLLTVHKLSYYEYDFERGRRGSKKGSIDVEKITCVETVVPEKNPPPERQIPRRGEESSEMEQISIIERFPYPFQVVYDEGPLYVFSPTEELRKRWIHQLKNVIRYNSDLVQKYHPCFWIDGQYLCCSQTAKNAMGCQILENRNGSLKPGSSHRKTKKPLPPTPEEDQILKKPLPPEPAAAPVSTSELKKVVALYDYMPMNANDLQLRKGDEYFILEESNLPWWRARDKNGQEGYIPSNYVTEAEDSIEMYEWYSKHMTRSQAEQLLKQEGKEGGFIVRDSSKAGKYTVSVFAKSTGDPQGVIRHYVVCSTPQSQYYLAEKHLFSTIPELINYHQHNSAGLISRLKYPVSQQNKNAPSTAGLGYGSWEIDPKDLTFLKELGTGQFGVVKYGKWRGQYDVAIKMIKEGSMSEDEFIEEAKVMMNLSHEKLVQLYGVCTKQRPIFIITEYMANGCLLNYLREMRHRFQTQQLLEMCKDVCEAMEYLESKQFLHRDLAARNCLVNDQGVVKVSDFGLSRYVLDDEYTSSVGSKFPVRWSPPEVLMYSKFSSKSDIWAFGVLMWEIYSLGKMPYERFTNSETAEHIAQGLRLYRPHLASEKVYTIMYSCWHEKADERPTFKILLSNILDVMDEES

For the compound `Cn1cc(-c2cccc(N3CCn4c(cc5c4CC(C)(C)C5)C3=O)c2CO)cc(Nc2ccc(N3CCN(C4COC4)CC3)cn2)c1=O`, the IC50 (commonly the concentration that inhibits the measured activity by half) was determined as 5.2 nM.

These data come from ChEMBL document CHEMBL3639120, “Pyridone and aza-pyridone compounds and methods of use” (2013).
